For the experiment, the system named is HPRT gene. In words: Hprt mutation assay in synchronized CHO cells. It is filed as cell-based, Chinese Hamster. As for the experimental part: Synchronization protocol: Chinese Hamster Ovary (CHO) AA8 cells (ATCC) were prepared as described above for the HPRT knockout assay. The cells were synchronized in G0/G1 by a variation of the method described by Sawai et al. (96). Briefly, cells were plated at subconfluent levels and the next day the medium changed to DMEM with 2% FBS and 2% DMSO. After 48 h the cells were washed (˜85% G0/G1 cells by FACS analysis) and either electroporated or fed with complete medium (for G1 phase experiments), or incubated with complete medium containing 100 μM mimosine for 16 hrs to block them in early S phase (˜90% early S cells). See Orren et al. for complete details on this procedure (49). After 16 hrs the cells were released from the mimosine block by feeding with DMEM/10% FBS. TFO electroporation, Psoralen treatment, and Hprt mutation assay: Cells were suspended at 10^7/mL and mixed with TFO at 5 μM. The cells were electroporated (BioRad), followed by incubation at room temperature for 3 hrs, and a 3 min exposure in a Rayonet chamber to UVA light at 1.8 J/cm^2. […] Cells treated with free psoralen were incubated with 5 μM psoralen for 30 min, followed by UVA treatment. The cells were passaged and then exposed to thioguanine (TG) selection (43).

For `O=c1ccc2cc3ccoc3cc2o1` [psoralen], the “frequency of thioguanine resistant colonies” value (5 μM free psoralen 30 min, UVA, different phases of cell cycle, background 0.001%) is given as 0.004-0.005%. Besides, the “cell cycle variability of mutation frequency” value (free psoralen/UVA) is “essentially unchanged across the cell cycle”.
